# Test results taken from US20040077607A1 (priority 2002, published 2004).
# Values joined by “and” are separate entries in the source; they are usually repeats but may differ in a detail not shown here. Equal entries are not always repeated. Where two headings read alike, the source gives them in different places.
# Legend:
# [1] = 37° C.
# [2] = simulated intestinal fluid, 100 μM, 37° C.
# [3] = not given; remark: listed apart in the source
# in vivo [4] = conditions: female, Balb/c, mouse, iv, 100 mg/kg
# in vivo [5] = conditions: female, Balb/c, mouse, iv, 75 mg/kg, Balb/c mice, plasma; for AUC / clearance / Cmax / Vd: after i.v. 75 mg/kg Ala-d4T-MP; for clearance: CL; for Vd: Vss; for half-life: t1/2, after i.v. 75 mg/kg Ala-d4T-MP
# in vivo [6] = conditions: female, Balb/c, mouse, po, 100 mg/kg, Balb/c mice, plasma; for AUC / Cmax / Tmax: after oral 100 mg/kg d4T-5′-[p-bromophenyl methoxyalaninyl phosphate]; for half-life: t1/2, after oral 100 mg/kg d4T-5′-[p-bromophenyl methoxyalaninyl phosphate]
# [7] = after i.v. 40 mg/kg d4T, Balb/c mice, plasma; mean ± S.E.M. (in parentheses)
# [8] = after oral 100 mg/kg d4T-5′-[p-bromophenyl methoxyalaninyl phosphate], Balb/c mice, plasma; mean ± S.E.M. (in parentheses)
# [9] = test system: Josiach strain of Lassa Virus; parameters: species or system CBA mice; conditions: mouse, in vivo
# [10] = for mean percent hydrolysis in plasma: 250 μM
# [11] = 100 μM, mouse liver homogenate
# [12] = female, Balb/c, mouse, in vivo, iv
# [13] = mouse, in vivo; cited from earlier work
# [14] = rat, in vivo; cited from earlier work
# [15] = dog, in vivo; cited from earlier work
# [16] = in vivo; cited from earlier work
# [17] = model fit after i.v. 75 mg/kg Ala-d4T-MP, C.V. of modeling in parentheses, 75 mg/kg
# [18] = estimate from composite pooled data
smiles,measurement,setting,value
"Cc1cn([C@H]2C=C[C@@H](COP(=O)(O)N[C@@H](C)C(=O)O)O2)c(=O)[nH]c1=O [Ala-d4T-MP, alaninyl-d4T-monophosphate]",stability in plasma,"100 μM, for 1 day",stable
same,stability in whole blood,"[1]; 100 μM, for 1 day",stable
same,stability in intestinal fluid,[2],stable
same,CLm1 as share of the total systemic clearance,[3]; after i.v. 75 mg/kg Ala-d4T-MP,99%
same,fraction converted to d4T,[3]; after intravenous administration of Ala-d4T-MP,15%
same,CLml (metabolic clearance of Ala-d4T-MP / formation clearance of d4T),[3]; [17],15.6 ml/min/kg and 15.6 (16.6%) ml/min/kg
same,CLpd (distribution of Ala-d4T-MP to the extravascular compartment),[3]; [17],4.7 ml/min/kg and 4.7 (44.7%) ml/min/kg
same,AUC,in vivo [4]; AUC,47.6 µM·h
same,Cmax,in vivo [4]; Cmax,67.4 µM
same,half-life,in vivo [4]; t1/2,129 min
same,Tmax,in vivo [4]; tmax,5.9 min
same,AUC,in vivo [5]; [18],194 µM·h
same,AUC,in vivo [5]; mean ± S.E.M. (in parentheses),196 µM·h
same,clearance,in vivo [5]; [18],15.8 mL/min/kg
same,clearance,in vivo [5]; mean ± S.E.M. (in parentheses),15.7 mL/min/kg
same,Cmax,in vivo [5]; [18],1210 µM
same,Cmax,in vivo [5]; mean ± S.E.M. (in parentheses),1660 µM
same,Vd,in vivo [5]; [18],0.276 L/kg
same,Vd,in vivo [5]; mean ± S.E.M. (in parentheses),0.413 L/kg
same,half-life,in vivo [5]; [18],28.5 min
same,half-life,in vivo [5]; mean ± S.E.M. (in parentheses),91.5 min
same,AUC,in vivo [6]; [18],22.5 µM·h
same,AUC,in vivo [6]; mean ± S.E.M. (in parentheses),22.6 µM·h
same,Cmax,in vivo [6]; [18],12.7 µM
same,Cmax,in vivo [6]; mean ± S.E.M. (in parentheses),15.6 µM
same,half-life,in vivo [6]; [18],66.4 min
same,half-life,in vivo [6]; mean ± S.E.M. (in parentheses),56.1 min
same,Tmax,in vivo [6]; [18],10.3 min
same,Tmax,in vivo [6]; mean ± S.E.M. (in parentheses),9.3 min
"Cc1cn([C@H]2C=C[C@@H](CO)O2)c(=O)[nH]c1=O [d4T, 2′,3′-didehydro-2′,3′-dideoxythymidine]",Tmax,"[3]; after i.v. 75 mg/kg Ala-d4T-MP, Balb/c mice, plasma, mean ± S.E.M. (in parentheses)",(5.0 ± 1.2) min
same,CLme (elimination of d4T derived from Ala-d4T-MP),[3]; [17],88.4 ml/min/kg and 88.4 (13.0%) ml/min/kg
same,AUC,[7],(12173.6 ± 559.5) μM · min
same,AUC,[8],(5928.4 ± 294.6) μM · min
same,Cmax,[8],29.5 µM
same,Tmax,[8],(45.2 ± 5.2) min
same,t1/2,[8],(102.6 ± 3.8) min
COC(=O)C(C)NP(=O)(OC[C@@H]1C=C[C@H](n2cc(C)c(=O)[nH]c2=O)O1)Oc1ccc(Br)cc1 (stereo partly drawn) [d4T-5′-[p-bromophenylmethoxyalaninyl phosphate]],median survival,[9],> 21 days
same,mice remaining healthy beyond the 21-day observation period,[9],9 mice
same,mice surviving beyond the 21 day observation period,[9],6 mice
same,probability of survival at 21 days,[9],75% and 90%
same,stability in plasma,250 μM,very unstable
same,time to complete decomposition in plasma,250 μM,≤ 30 min
same,decomposed following incubation with plasma,"250 μM, after 5 minutes",over 95%
same,stability in whole blood,[1]; 250 μM,very unstable
same,time to complete decomposition in whole blood,[1]; 250 μM,≤ 30 min
same,decomposed in whole blood,"[1]; 250 μM, 5 minutes",68%
same,decomposed in whole blood,"[1]; 250 μM, 10 minutes",87%
same,decomposed in whole blood,"[1]; 250 μM, 15 minutes",92%
same,mean percent hydrolysis in plasma,"[10]; EDTA (1 mM; arylesterase), 5 min",99%
same,mean percent hydrolysis in plasma,"[10]; EDTA (1 mM; arylesterase), 10 min",100%
same,mean percent hydrolysis in plasma,"[10]; EDTA (1 mM; arylesterase), 15 min",100%
same,mean percent hydrolysis in plasma,"[10]; EDTA (1 mM; arylesterase), 30 min",100%
same,mean percent hydrolysis in plasma,"[10]; EDTA (1 mM; arylesterase), 60 min",100%
same,mean percent hydrolysis in plasma,"[10]; EDTA (1 mM; arylesterase), 120 min",100%
same,"decomposition in plasma, effect of EDTA","[10]; EDTA, 37° C.",not affected
same,mean percent hydrolysis in plasma,"[10]; No inhibitor, 5 min",95%
same,mean percent hydrolysis in plasma,"[10]; No inhibitor, 10 min",98%
same,mean percent hydrolysis in plasma,"[10]; No inhibitor, 15 min",99%
same,mean percent hydrolysis in plasma,"[10]; No inhibitor, 30 min",100%
same,mean percent hydrolysis in plasma,"[10]; No inhibitor, 60 min",100%
same,mean percent hydrolysis in plasma,"[10]; No inhibitor, 120 min",100%
same,mean percent hydrolysis in plasma,"[10]; Physostigmine (0.1 mM; cholinesterase), 5 min",43%
same,mean percent hydrolysis in plasma,"[10]; Physostigmine (0.1 mM; cholinesterase), 10 min",65%
same,mean percent hydrolysis in plasma,"[10]; Physostigmine (0.1 mM; cholinesterase), 15 min",76%
same,mean percent hydrolysis in plasma,"[10]; Physostigmine (0.1 mM; cholinesterase), 30 min",89%
same,mean percent hydrolysis in plasma,"[10]; Physostigmine (0.1 mM; cholinesterase), 60 min",100%
same,mean percent hydrolysis in plasma,"[10]; Physostigmine (0.1 mM; cholinesterase), 120 min",100%
same,"decomposition in plasma, effect of physostigmine","[10]; physostigmine 0.1 mM, 37° C.",partially inhibited
same,time to decomposition after incubation with liver homogenate,[11],≤ 30 min
same,decomposed in intestinal fluid,[2]; within 2 hours,approximately 94%
same,fraction converted to Ala-d4T-MP,[12],23%
same,fraction converted to d4T,[12],24%
same,acute or subacute toxicity,[13],very well tolerated without any detectable acute or subacute toxicity
same,toxicity on daily administration,[13],not associated with any detectable toxicity
same,acute or subacute toxicity,[14],very well tolerated without any detectable acute or subacute toxicity
same,toxicity on daily administration,[14],not associated with any detectable toxicity
same,tolerability,[15],very well tolerated
same,tolerability,[16],very well tolerated
